Literature values in patent US20140053594A1, “THERMALLY ACTIVATED PRESSURE BOOSTER FOR HEAT PUMPING AND POWER GENERATION” (priority 2011, published 2014).

How the values were obtained:
rat [1] = settings: intravenous
rat [2] = settings: intraperitoneal
RBT = settings: intraperitoneal, rabbit
rat [3] = settings: oral
rat [4] = system: rat

| Structure (SMILES) | IVN-RAT LD50 (rat [1]) [mg/kg] | IPR-RAT LD50 (rat [2]) [mg/kg] | IPR-RBT LD50 (RBT) | ORL-RAT LD50 (rat [3]) | Acute dermal toxicity (LD50) (rat [4]) | Acute oral toxicity (LD50) (Mouse) |
| --- | --- | --- | --- | --- | --- | --- |
| CN(C)C=O [DMF, dimethylformamide] | 2000 | 1400 | LD50 1000 mg kg^−1 | ORL-RAT LD50 2800 mg kg^−1 | – | – |
| C[S+](C)[O-] [DMSO, dimethyl sulfoxide] | – | – | – | – | 40000 mg/kg [Rat] | 7920 mg/kg [Mouse] |
